{"source": "patent US20260184706A1", "about": "“PHENYLSULFONAMIDE DERIVATIVES, PREPARATION METHOD THEREFOR, AND PHARMACEUTICAL COMPOSITION FOR PREVENTION OR TREATMENT OF CANCER CONTAINING SAME AS ACTIVE INGREDIENT” (Korea Research Institute of Chemical Technology, priority 2022, published 2026)", "tested_on": "ATF4", "assay": "Inhibition of ATF4, downstream factor of ISR, in HT-1080 cells, Western blot (FIG. 1)", "type": "cell-based, human", "settings": "amino acid deficiency, compound 50 nM, 24 hours", "protocol": "<Experimental Example 5> Evaluation of Inhibitory Efficacy of ISR-Related Kinase GCN2 Under Amino Acid Deficiency Condition Using Western Blot\nHT-1080 cells, a human fibrosarcoma cell line, were cultured in RPMI-1640 medium supplemented with 10% FBS, penicillin (penicillin; 100 IU/ml), and streptomycin (streptomycin; 100 μg/ml). Cells (1×10^6 cells/ml) were seeded onto 100 mm plates (polypropylene tissue culture plate) and incubated for 24 hours in a 37° C., 5% CO2 incubator before being used for experiments.\nThe following method was used to achieve amino acid deficiency conditions in cells. After 24 hours of cell culture, the cells were cultured in amino acids and L-glutamine-free RPMI-1640 medium supplemented with 10% FBS, penicillin (100 IU/ml), and streptomycin (100 μg/ml). After 24 hours of cell culture in RPMI-1640 without amino acids and L-glutamine, the compound prepared at a concentration of 50 nM was dispensed onto each plate and cultured for 24 hours in a 37° C., 5% CO2 incubator.\nIn order to measure the signal transduction inhibitory efficacy of GCN among the ISR-related kinases according to the present invention, the following experiment was performed using SDS-PAGE. The fibrosarcoma cell line HT-1080 cells cultured on plates as described above were washed with PBS after removing the culture medium. After removing PBS, the cells were lysed by adding a radio-immunoprecipitation assay buffer (RIPA buffer) containing 50 mM Tris (pH 7.4), 150 mM NaCl, 1% NP-40, 0.5% sodium deoxycholate, 2 mM sodium fluoride, 2 mM EDTA, 0.1% SDS, and a protease/phosphatase inhibitor cocktail to the plate. After centrifugation at 4° C., 13,000×g for 15 minutes, the protein in the upper layer was collected, and the protein concentration was measured at 562 nm using BCA (bicinchoninc acid) reagent, and the amount of protein in all samples was prepared at 20-50 μg.\nAfter making the total volume the same using the sample buffer and RIPA buffer, it was heated at 97° C. for 5 minutes. Then, electrophoresis was performed on 8% or 12% SDS-PAGE at 80 V for 30 minutes and at 160 V for 1 hour and 30 minutes. After electrophoresis, the SDS-PAGE gel was transferred to an NC membrane (nitrocellulose membrane) at 90 V for 2 hours. The NC membrane was placed in TBST (tris buffer saline tween-20; 20 mM tris, 137 mM sodium chloride, 0.1% tween-20, pH 8.0) containing 5% non-fat skim milk, placed on a shaker, and reacted at room temperature for 1 hour.\nEach primary antibody was diluted in TBST containing 5% non-fat skim milk, poured onto the NC membrane, and reacted at 4° C. for 24 hours. The membrane was washed three times for 10 minutes each with TBST. The secondary antibodies (anti-rabbit IgG and anti-mouse IgG labeled with horseradish peroxidase (HRP)) were diluted in TBST containing 5% non-fat skim milk and reacted with the membrane at room temperature for 1 hour. Upon completion of the reaction, the membrane was washed three times with TBST for 10 minutes each. Protein expression bands were detected by a chemiluminescence image analyzer (Image Quant LAS 500) after the ECL solution was reacted with the NC membrane.\nFIG. 1 is a set of photographs confirming the mechanism proteins that react upon ISR activation, wherein the numbers correspond to example numbers of the present invention. […] They are also known to have an effect on increasing the expression of CHOP (GADD153), the most downstream factor of the mechanism. […] Thus, in addition to the activation of ISR by amino acid deficiency, a significant effect can be expected on the mechanism of inhibition of the activity of PERK, an ISR-related kinase, due to endoplasmic reticulum stress response.", "data": [{"smiles": "COc1ncc(Cl)cc1S(=O)(=O)Nc1ccc(F)c(-n2cc(C(F)F)c3nc(N)ncc3c2=O)c1F", "note": "[Example 22, N-(3-(2-amino-8-(difluoromethyl)-5-oxopirido[4,3-d]pyrimidin-6(5H)-yl)-2,4-difluorophenyl)-5-chloro-2-methoxypyridine-3-sulfonamide]", "values": [{"measurement": "inhibitory effect on ATF4 (FIG. 1)", "result": "excellent inhibitory effects"}]}, {"smiles": "Nc1ncc2c(=O)n(-c3c(F)ccc(NS(=O)(=O)c4cccc5ccccc45)c3F)ccc2n1", "note": "[Example 29, N-(3-(2-amino-5-oxopirido[4,3-d]pyrimidin-6(5H)-yl)-2,4-difluorophenyl)naphthalene-1-sulfonamide]", "values": [{"measurement": "inhibitory effect on ATF4 (FIG. 1)", "result": "excellent inhibitory effects"}]}, {"smiles": "COc1ncc(Cl)cc1S(=O)(=O)Nc1ccc(F)c(-n2c(=O)c3cnc(N)nc3n(C)c2=O)c1F", "note": "[Example 44, N-(3-(7-amino-1-methyl-2,4-dioxo-1,4-dihydropyrimido[4,5-d]pyrimidin-3(2H)-yl)-2,4-difluorophenyl)-5-chloro-2-methoxypyridine-3-sulfonamide]", "values": [{"measurement": "inhibitory effect on ATF4 (FIG. 1)", "result": "excellent inhibitory effects"}]}, {"smiles": "COc1ncc(Br)cc1S(=O)(=O)Nc1ccc(F)c(-n2c(=O)c3cnc(N)nc3n(C)c2=O)c1F", "note": "[Example 46, N-(3-(7-amino-1-methyl-2,4-dioxo-1,4-dihydropyrimido[4,5-d]pyrimidin-3(2H)-yl)-2,4-difluorophenyl)-5-bromo-2-methoxypyridine-3-sulfonamide]", "values": [{"measurement": "inhibitory effect on ATF4 (FIG. 1)", "result": "excellent inhibitory effects"}]}]}
